Test results from ChEMBL document CHEMBL3616454, “Synthesis and antiviral activity of some new bis-1,3-thiazole derivatives” (Eur J Med Chem, 2015).
Values after ≈ are worked out from the molar mass of the structure shown.

Tests used:
[1] = Selectivity index, ratio of CC50 for MDCK cells by visual method to EC50 for Influenza A virus (A/California/07/2009(H1N1) virus by visual method; format: toxicity, cell-based; settings: dog, read-out: Ratio CC50/EC50
[2] = Antiviral activity against Influenza A virus (A/California/07/2009(H1N1) infected in MDCK cell line assessed as reduction of virus induced cytopathic effect by visual assay; format: functional, cell-based
[3] = Cytotoxicity against MDCK cells assessed as cell viability by neutral red assay; format: cell-based, Canis lupus familiaris; settings: dog
[4] = Antiviral activity against Influenza A virus (A/California/07/2009(H1N1)) infected in MDCK cell line assessed as reduction of virus induced cytopathic effect by neutral red assay; format: functional, cell-based
[5] = Cytotoxicity against MDCK cells assessed as cell viability by visual assay; format: cell-based, Canis lupus familiaris; settings: dog
[6] = Selectivity index, ratio of CC50 for MDCK cells by neutral red method to EC50 for Influenza A virus (A/California/07/2009(H1N1) virus by neutral red method; format: toxicity, cell-based; settings: dog, read-out: Ratio CC50/EC50
[7] = Selectivity index, ratio of CC50 for luciferase expressing Huh/NeoET cells to EC50 for Hepatitis C virus 1b CON1; format: toxicity, cell-based; settings: human, read-out: Ratio CC50/EC50
Hepatitis C virus [8] = experiment: Antiviral activity against Hepatitis C virus 1b CON1 infected in human Huh/NeoET cells expressing luciferase assessed as reduction of virus induced cytopathic effect by luciferse reporter assay; format: functional, cell-based, Hepacivirus hominis; settings: genotype 1b Con1, Huh/NeoET
[9] = Cytotoxicity against human Huh/NeoET cells assessed as cell viability by cytoTox1 cell proliferation assay; format: cell-based
[10] = Selectivity index, ratio of CC50 for human HuH7 cells to EC50 for HCV 2a (JFH1); parameters: species or system Huh-7
[11] = Selectivity index, ratio of CC50 for human HuH7 cells to EC50 for HCV 1a/2a (H77/JFH1); parameters: species or system Huh-7
Hepatitis C virus [12] = experiment: Antiviral activity against HCV 2a (JFH1) infected in human Huh7 cells assessed as reduction of virus induced cytopathic effect by luciferase reporter assay; format: functional, organism-based, Hepacivirus hominis; settings: Huh-7
[13] = Selectivity index, ratio of CC50 for human HuH7.5 cells to EC50 for HCV 2a/2a (J6/JFH1); parameters: species or system Huh-7
Hepatitis C virus [14] = experiment: Antiviral activity against HCV 1b/2a (Con-1/JFH-1) infected in human Huh7.5 cells assessed as reduction of virus induced cytopathic effect by luciferase reporter assay; format: functional, organism-based, Hepacivirus hominis; settings: Huh-7
Hepatitis C virus [15] = experiment: Antiviral activity against HCV 2a/2a (J6/JFH1) infected in human Huh7.5 cells assessed as reduction of virus induced cytopathic effect by luciferase reporter assay; format: functional, organism-based, Hepacivirus hominis; settings: Huh-7
Hepatitis C virus [16] = experiment: Antiviral activity against HCV 1a H77 infected in human Huh7.5 cells assessed as reduction of virus induced cytopathic effect by qRT-PCR; format: functional, cell-based, Hepacivirus hominis; settings: genotype 1a H77, Huh-7
[17] = Selectivity index, ratio of CC50 for human HuH7 cells to EC50 for Hepatitis C virus 1a H77; format: toxicity, cell-based, Huh-7; settings: read-out: Ratio CC50/EC50
[18] = Cytotoxicity against human HuH7 cells assessed as cell viability by cytoTox1 cell proliferation assay; format: cell-based, Huh-7
[19] = Selectivity index, ratio of CC50 for human HuH7.5 cells to EC50 for HCV 1b/2a (Con-1/JFH-1); parameters: species or system Huh-7
Hepatitis C virus [20] = experiment: Antiviral activity against HCV 1a/2a (H77/JFH1) infected in human Huh7.5 cells assessed as reduction of virus induced cytopathic effect by luciferase reporter assay; format: functional, organism-based, Hepacivirus hominis; settings: Huh-7
[21] = Cytotoxicity against human Huh7.5 cells assessed as cell viability by cytoTox1 cell proliferation assay; format: cell-based, Huh-7.5
Hepatitis C virus [22] = experiment: Antiviral activity against HCV 1b Con1 infected in human Huh7.5 cells assessed as reduction of virus induced cytopathic effect by qRT-PCR; format: functional, cell-based, Hepacivirus hominis; settings: genotype 1b Con1, Huh-7
[23] = Selectivity index, ratio of CC50 for human HuH7 cells to EC50 for Hepatitis C virus 1b CON1; format: toxicity, cell-based, Huh-7; settings: read-out: Ratio CC50/EC50

Row | Compound | selectivity ratio [1] | EC50 [2] [µg/mL] | CC50 [3] [µg/mL] | EC50 [4] [µg/mL] | CC50 [5] [µg/mL] | selectivity ratio [6] | selectivity ratio [7] | EC50 (Hepatitis C virus [8]) [µM] | EC90 (Hepatitis C virus [8]) [µM] | CC50 [9] [µM] | further results
1 | CCOC(=O)C1=C(C)N(c2ccccc2)/C(=C2\S/C(=N/c3nc(-c4c(C)n(C)n(-c5ccccc5)c4=O)cs3)N(c3ccccc3)C2=O)S1 | > 1.5 | 68 (≈ 96.2 µM) | > 100 | 92 (≈ 130 µM) | > 100 | > 1.1 |  |  |  |  | 
2 | Cc1c(-c2csc(/N=C3/S/C(=C4/SCC(=O)N4c4ccccc4)C(=O)N3c3ccccc3)n2)c(=O)n(-c2ccccc2)n1C | > 4.2 | 23 (≈ 36.1 µM) | > 100 | 23 (≈ 36.1 µM) | > 100 | > 4.3 | > 2 | 12.7 | > 20 | > 20 | 
3 | CC(=O)C1=NN(c2ccc(Cl)cc2)/C(=C2\S/C(=N/c3nc(-c4c(C)n(C)n(-c5ccccc5)c4=O)cs3)N(c3ccccc3)C2=O)S1 |  |  |  |  |  |  | > 18 | 1.12 | 14.4 | > 20 | 
4 | CC(=O)C1=NN(c2ccc(C)cc2)/C(=C2\S/C(=N/c3nc(-c4c(C)n(C)n(-c5ccccc5)c4=O)cs3)N(c3ccccc3)C2=O)S1 |  |  |  |  |  |  | > 19 | 1.04 | 4.76 | > 20 | 
5 | CC(=O)C1=NN(c2ccccc2)/C(=C2\S/C(=N/c3nc(-c4c(C)n(C)n(-c5ccccc5)c4=O)cs3)N(c3ccccc3)C2=O)S1 |  |  |  |  |  |  | > 36 | 0.56 | 1.81 | > 20 | Ratio CC50/EC50 [10]: >1; Ratio CC50/EC50 [11]: >1; EC50 (Hepatitis C virus [12]): 17.7 µM; EC90 (Hepatitis C virus [12]): > 20 µM; Ratio CC50/EC50 [13]: >13; EC50 (Hepatitis C virus [14]): 1.09 µM; EC90 (Hepatitis C virus [14]): > 20 µM; EC50 (Hepatitis C virus [15]): 1.54 µM; EC90 (Hepatitis C virus [15]): > 20 µM; EC50 (Hepatitis C virus [16]): > 20 µM; EC90 (Hepatitis C virus [16]): > 20 µM; selectivity ratio [17]: 1; CC50 [18]: > 20 µM; Ratio CC50/EC50 [19]: >18; EC50 (Hepatitis C virus [20]): 13.6 µM; EC90 (Hepatitis C virus [20]): > 20 µM; CC50 [21]: > 20 µM; EC50 (Hepatitis C virus [22]): 0.46 µM; EC90 (Hepatitis C virus [22]): > 20 µM; selectivity ratio [23]: > 43
6 | NC(=O)c1ncn([C@@H]2O[C@H](CO)[C@@H](O)[C@H]2O)n1 [RIBAVIRIN] | > 32 | 24 (≈ 98.3 µM) | > 320 | 16 (≈ 65.5 µM) | > 320 | > 2 |  |  |  |  | 
7 | COc1ccc(N2N=C(C(C)=O)S/C2=C2/S/C(=N/c3nc(-c4c(C)n(C)n(-c5ccccc5)c4=O)cs3)N(c3ccccc3)C2=O)cc1 |  |  |  |  |  |  | > 7 | 2.8 | 15.5 | > 20 | 
